In patent US10118901B2 (priority 2013, dated 2018):

How the values were obtained:
NCI-H226 = assay: NCI-60 screen at 10 μM: NCI-H226; assay type: cell-based, human; settings: NSCLC NCI-H226; 10 μM single dose; 48 hrs
Procedure: (§1) NL-101 and CY-102 was sent to U.S. National Cancer Institute (NCI) for NCI 60-cell line screening using a single compound dose (10 μM).
(§2) The human tumor cell lines of the cancer screening panel were grown in RPMI 1640 medium containing 5% fetal bovine serum (5% FBS) and 2 mM L-glutamine. For a typical screening experiment, cells were inoculated into 96-well microtiter plates in 100 μL, at plating densities ranging from 5,000 to 40,000 cells/well depending on the doubling time of individual cell lines. After cell inoculation, the microtiter plates were incubated at 37° C., 5% CO2, 95% air, and 100% relative humidity for 24 h prior to addition of experimental compounds. […]
(§3) Following drug addition, the plates were incubated for an additional 48 hrs at 37° C., 5% CO2, 95% air, and 100% relative humidity. […] Bound stain was subsequently solubilized with 10 mM trizma base, and the absorbance was read on an automated plate reader at a wavelength of 515 nm. […]
(§4) Using the seven absorbance measurements [time zero, (Tz), control growth, (C), and test growth in the presence of drug at the 10 μM concentration levels (Ti)], percentage growth was calculated at each of the drug concentrations levels. Percentage growth inhibition was calculated as: [(Ti−Tz)/(C−Tz)]×100 for which Ti>/=Tz or [(Ti−Tz)/Tz]×100 for which Ti<Tz.

CAKI-1 = assay: NCI-60 screen at 10 μM: CAKI-1; assay type: cell-based, human; settings: Renal Cancer CAKI-1; 10 μM single dose; 48 hrs
Procedure: as §1, §2, §3, §4

OVCAR-4 = assay: NCI-60 screen at 10 μM: OVCAR-4; assay type: cell-based, human; settings: Ovarian Cancer OVCAR-4; 10 μM single dose; 48 hrs
Procedure: as §1, §2, §3, §4

COLO 205 = assay: NCI-60 screen at 10 μM: COLO 205; assay type: cell-based, human; settings: Colon Cancer COLO 205; 10 μM single dose; 48 hrs
Procedure: as §1, §2, §3, §4

HCT-15 = assay: NCI-60 screen at 10 μM: HCT-15; assay type: cell-based, human; settings: Colon Cancer HCT-15; 10 μM single dose; 48 hrs
Procedure: as §1, §2, §3, §4

SW-620 = assay: NCI-60 screen at 10 μM: SW-620; assay type: cell-based, human; settings: Colon Cancer SW-620; 10 μM single dose; 48 hrs
Procedure: as §1, §2, §3, §4

786-0 = assay: NCI-60 screen at 10 μM: 786-0; assay type: cell-based, human; settings: Renal Cancer 786-0; 10 μM single dose; 48 hrs
Procedure: as §1, §2, §3, §4

SK-MEL-2 = assay: NCI-60 screen at 10 μM: SK-MEL-2; assay type: cell-based, human; settings: Melanoma SK-MEL-2; 10 μM single dose; 48 hrs
Procedure: as §1, §2, §3, §4

MDA-MB-435 = assay: NCI-60 screen at 10 μM: MDA-MB-435; assay type: cell-based, human; settings: Melanoma MDA-MB-435; 10 μM single dose; 48 hrs
Procedure: as §1, §2, §3, §4

MCF7 = assay: NCI-60 screen at 10 μM: MCF7; assay type: cell-based, human; settings: Breast Cancer MCF7; 10 μM single dose; 48 hrs
Procedure: as §1, §2, §3, §4

SK-OV-3 = assay: NCI-60 screen at 10 μM: SK-OV-3; assay type: cell-based, human; settings: Ovarian Cancer SK-OV-3; 10 μM single dose; 48 hrs
Procedure: as §1, §2, §3, §4

SF-295 = assay: NCI-60 screen at 10 μM: SF-295; assay type: cell-based, human; settings: CNS Cancer (Glioma) SF-295; 10 μM single dose; 48 hrs
Procedure: as §1, §2, §3, §4

SF-268 = assay: NCI-60 screen at 10 μM: SF-268; assay type: cell-based, human; settings: CNS Cancer (Glioma) SF-268; 10 μM single dose; 48 hrs
Procedure: as §1, §2, §3, §4

U251 = assay: NCI-60 screen at 10 μM: U251; assay type: cell-based, human; settings: CNS Cancer (Glioma) U251; 10 μM single dose; 48 hrs
Procedure: as §1, §2, §3, §4

MDA-MB-468 = assay: NCI-60 screen at 10 μM: MDA-MB-468; assay type: cell-based, human; settings: Breast Cancer MDA-MB-468; 10 μM single dose; 48 hrs
Procedure: as §1, §2, §3, §4

60 cancer cell lines = assay: NCI-60 DTP human tumor cell line screen at 10 μM, whole panel; assay type: cell-based; settings: for Growth %, Median: 10 μM single dose, median over cell lines; for mean growth percent in the 60 cancer cell lines: single dose of about 10 μM
Procedure: as §1
The human tumor cell lines of the cancer screening panel were grown in RPMI 1640 medium containing 5% fetal bovine serum (5% FBS) and 2 mM L-glutamine. For a typical screening experiment, cells were inoculated into 96-well microtiter plates in 100 μL, at plating densities ranging from 5,000 to 40,000 cells/well depending on the doubling time of individual cell lines. After cell inoculation, the microtiter plates were incubated at 37° C., 5% CO2, 95% air, and 100% relative humidity for 24 h prior to addition of experimental compounds. After 24 hr, two plates of each cell line were fixed in situ with TCA, to represent a measurement of the cell population for each cell line at the time of drug addition (Tz). Experimental drugs were solubilized in dimethyl sulfoxide at 400-fold the desired final maximum test concentration and stored frozen prior to use. At the time of drug addition, an aliquot of frozen concentrate was thawed and diluted to twice the desired final maximum test concentration with complete medium containing 50 μg/ml gentamicin. Aliquots of 100 μL of these different drug dilutions were added to the appropriate microtiter wells already containing 100 μL of medium, resulting in the required final drug concentrations.
Following drug addition, the plates were incubated for an additional 48 hrs at 37° C., 5% CO2, 95% air, and 100% relative humidity. For adherent cells, the assay was terminated by the addition of cold TCA. Cells were then fixed in situ by the gentle addition of 50 μL of cold 50% (w/v) TCA (final concentration, 10% TCA) and incubated for 60 minutes at 4° C. The supernatant was discarded, and the plates were washed five times with tap water and air dried. Sulforhodamine B (SRB) solution (100 μL) at 0.4% (w/v) in 1% acetic acid was added to each well, and plates were incubated for 10 minutes at room temperature. After staining, unbound dye was removed by washing five times with 1% acetic acid and the plates were air dried. Bound stain was subsequently solubilized with 10 mM trizma base, and the absorbance was read on an automated plate reader at a wavelength of 515 nm. […]
as §4

SK-MEL-28 = assay: NCI-60 screen at 10 μM: SK-MEL-28; assay type: cell-based, human; settings: Melanoma SK-MEL-28; 10 μM single dose; 48 hrs
Procedure: as §1, §2, §3, §4

IGROV1 = assay: NCI-60 screen at 10 μM: IGROV1; assay type: cell-based, human; settings: Ovarian Cancer IGROV1; 10 μM single dose; 48 hrs
Procedure: as §1, §2, §3, §4

TK-10 = assay: NCI-60 screen at 10 μM: TK-10; assay type: cell-based, human; settings: Renal Cancer TK-10; 10 μM single dose; 48 hrs
Procedure: as §1, §2, §3, §4

ACHN = assay: NCI-60 screen at 10 μM: ACHN; assay type: cell-based, human; settings: Renal Cancer ACHN; 10 μM single dose; 48 hrs
Procedure: as §1, §2, §3, §4

NCI-H23 = assay: NCI-60 screen at 10 μM: NCI-H23; assay type: cell-based, human; settings: NSCLC NCI-H23; 10 μM single dose; 48 hrs
Procedure: as §1, §2, §3, §4

SN12C = assay: NCI-60 screen at 10 μM: SN12C; assay type: cell-based, human; settings: Renal Cancer SN12C; 10 μM single dose; 48 hrs
Procedure: as §1, §2, §3, §4

HOP-62 = assay: NCI-60 screen at 10 μM: HOP-62; assay type: cell-based, human; settings: NSCLC HOP-62; 10 μM single dose; 48 hrs
Procedure: as §1, §2, §3, §4

M14 = assay: NCI-60 screen at 10 μM: M14; assay type: cell-based, human; settings: Melanoma M14; 10 μM single dose; 48 hrs
Procedure: as §1, §2, §3, §4

Structure (SMILES) | Growth % (NCI-H226) [%] | Growth % (CAKI-1) [%] | Growth % (OVCAR-4) [%] | Growth % (COLO 205) [%] | Growth % (HCT-15) [%] | Growth % (SW-620) [%] | Growth % (786-0) [%] | Growth % (SK-MEL-2) [%] | Growth % (MDA-MB-435) [%] | Growth % (MCF7) [%] | Growth % (SK-OV-3) [%] | Growth % (SF-295) [%] | Growth % (SF-268) [%] | Growth % (U251) [%] | Growth % (MDA-MB-468) [%] | Growth %, Median (60 cancer cell lines) [%] | mean growth percent in the 60 cancer cell lines (60 cancer cell lines) [%] | Growth % (SK-MEL-28) [%] | Growth % (IGROV1) [%] | Growth % (TK-10) [%] | other results
Cn1c(CCNCc2ccc(/C=C/C(=O)NO)cc2)nc2cc(N(CCCl)CCCl)ccc21 [CY-102] | −20.77 | −25.49 | −19.00 | −81.34 | 9.96 | 2.33 | −30.40 | −21.36 | −73.24 | −15.28 | −41.53 | −53.87 | −31.46 | −39.66 | −21.52 | −28.5 | −28 | −21.36 | −14.43 | −28.81 | Growth % (ACHN): −19.97%; Growth % (NCI-H23): −6.76%; Growth % (SN12C): −1.53%; Growth % (HOP-62): −30.02%; Growth % (M14): −76.75%
Cn1c(CCCCCCC(=O)NO)nc2cc(N(CCCl)CCCl)ccc21 [NL-101] | 60.27 | 27.64 | 68.52 | 54.36 | 76.48 | 30.40 | 19.82 | 37.31 | 49.07 | 37.24 | 34.40 | 43.95 | 10.27 | 35.03 | −34.68 | 36.35 | 36 | 59.32 | 55.99 | 48.48 | Growth % (ACHN): 14.30%; Growth % (NCI-H23): 30.14%; Growth % (SN12C): 17.91%; Growth % (HOP-62): 13.56%; Growth % (M14): 39.93%
